From the NIST ThermoML archive (doi:10.1021/acs.jced.7b00106)
Several values for one entry are separate records, joined by “and”; a condition that tells them apart may be missing. Identical values can stand only once.

Conditions: Hot wire method

FC(F)(F)/C=C/Cl [(E)-1-chloro-3,3,3-trifluoroprop-1-ene]
Conditions	thermal conductivity
421.68 K, 2403 kPa, Fluid (supercritical or subcritical phases)	0.02418 W/m/K
421.69 K, 1998 kPa, Fluid (supercritical or subcritical phases)	0.02232 W/m/K
421.7 K, 1999 kPa, Fluid (supercritical or subcritical phases)	0.02203 W/m/K
421.71 K, 1562 kPa, Fluid (supercritical or subcritical phases)	0.02117 W/m/K
421.72 K, 2307 kPa, Fluid (supercritical or subcritical phases)	0.02349 W/m/K
421.74 K, 801 kPa, Fluid (supercritical or subcritical phases)	0.0208 W/m/K
421.75 K, 1862 kPa, Fluid (supercritical or subcritical phases)	0.02184 W/m/K
421.75 K, 1863 kPa, Fluid (supercritical or subcritical phases)	0.02174 W/m/K
421.77 K, 1401 kPa, Fluid (supercritical or subcritical phases)	0.02096 W/m/K
421.77 K, 1403 kPa, Fluid (supercritical or subcritical phases)	0.02094 W/m/K
421.78 K, 3760 kPa, Liquid	0.05136 W/m/K and 0.05147 W/m/K
421.79 K, 2203 kPa, Fluid (supercritical or subcritical phases)	0.02296 W/m/K and 0.02299 W/m/K
421.8 K, 3309 kPa, Liquid	0.05069 W/m/K
421.81 K, 1723 kPa, Fluid (supercritical or subcritical phases)	0.02142 W/m/K
421.81 K, 1724 kPa, Fluid (supercritical or subcritical phases)	0.02139 W/m/K
421.81 K, 2616 kPa, Liquid	0.04986 W/m/K and 0.05013 W/m/K
421.81 K, 2914 kPa, Liquid	0.05019 W/m/K and 0.05004 W/m/K
421.81 K, 3308 kPa, Liquid	0.05077 W/m/K
421.83 K, 1221 kPa, Fluid (supercritical or subcritical phases)	0.0209 W/m/K
421.84 K, 2100 kPa, Fluid (supercritical or subcritical phases)	0.02258 W/m/K
421.85 K, 2099 kPa, Fluid (supercritical or subcritical phases)	0.02249 W/m/K
421.88 K, 1030 kPa, Fluid (supercritical or subcritical phases)	0.02077 W/m/K
421.88 K, 1033 kPa, Fluid (supercritical or subcritical phases)	0.02075 W/m/K
421.88 K, 1998 kPa, Fluid (supercritical or subcritical phases)	0.0222 W/m/K and 0.02217 W/m/K
421.91 K, 1563 kPa, Fluid (supercritical or subcritical phases)	0.02121 W/m/K
421.91 K, 2306 kPa, Fluid (supercritical or subcritical phases)	0.02366 W/m/K
421.91 K, 2307 kPa, Fluid (supercritical or subcritical phases)	0.02365 W/m/K
421.92 K, 1563 kPa, Fluid (supercritical or subcritical phases)	0.02116 W/m/K
421.94 K, 802 kPa, Fluid (supercritical or subcritical phases)	0.02077 W/m/K
421.95 K, 1862 kPa, Fluid (supercritical or subcritical phases)	0.02178 W/m/K and 0.0218 W/m/K
421.97 K, 2203 kPa, Fluid (supercritical or subcritical phases)	0.02307 W/m/K
421.98 K, 1401 kPa, Fluid (supercritical or subcritical phases)	0.02101 W/m/K
421.98 K, 1403 kPa, Fluid (supercritical or subcritical phases)	0.02116 W/m/K
421.98 K, 2204 kPa, Fluid (supercritical or subcritical phases)	0.02311 W/m/K
421.99 K, 3758 kPa, Liquid	0.05138 W/m/K
421.99 K, 4307 kPa, Liquid	0.05224 W/m/K
422 K, 3762 kPa, Liquid	0.05146 W/m/K
422 K, 4305 kPa, Liquid	0.0522 W/m/K
422.01 K, 1724 kPa, Fluid (supercritical or subcritical phases)	0.02156 W/m/K and 0.02145 W/m/K
422.01 K, 2914 kPa, Liquid	0.05029 W/m/K
422.01 K, 3308 kPa, Liquid	0.05079 W/m/K
422.01 K, 3310 kPa, Liquid	0.05082 W/m/K
422.02 K, 2616 kPa, Liquid	0.05008 W/m/K and 0.05005 W/m/K
422.02 K, 2914 kPa, Liquid	0.05026 W/m/K
422.03 K, 2099 kPa, Fluid (supercritical or subcritical phases)	0.02265 W/m/K
422.04 K, 2099 kPa, Fluid (supercritical or subcritical phases)	0.02262 W/m/K
422.06 K, 1218 kPa, Fluid (supercritical or subcritical phases)	0.02083 W/m/K
422.06 K, 1220 kPa, Fluid (supercritical or subcritical phases)	0.0209 W/m/K
422.08 K, 1998 kPa, Fluid (supercritical or subcritical phases)	0.0223 W/m/K
422.1 K, 1030 kPa, Fluid (supercritical or subcritical phases)	0.02079 W/m/K
422.1 K, 1031 kPa, Fluid (supercritical or subcritical phases)	0.02076 W/m/K
422.12 K, 1562 kPa, Fluid (supercritical or subcritical phases)	0.02118 W/m/K
422.16 K, 1862 kPa, Fluid (supercritical or subcritical phases)	0.02194 W/m/K
422.16 K, 1863 kPa, Fluid (supercritical or subcritical phases)	0.02189 W/m/K
422.18 K, 803 kPa, Fluid (supercritical or subcritical phases)	0.0208 W/m/K
422.18 K, 4947 kPa, Liquid	0.05308 W/m/K
422.18 K, 4948 kPa, Liquid	0.05312 W/m/K
422.2 K, 1401 kPa, Fluid (supercritical or subcritical phases)	0.02102 W/m/K
422.2 K, 1402 kPa, Fluid (supercritical or subcritical phases)	0.02108 W/m/K
422.21 K, 3760 kPa, Liquid	0.05155 W/m/K and 0.05149 W/m/K
422.21 K, 4301 kPa, Liquid	0.05224 W/m/K
422.22 K, 4305 kPa, Liquid	0.05226 W/m/K
422.23 K, 1723 kPa, Fluid (supercritical or subcritical phases)	0.02155 W/m/K
422.23 K, 3307 kPa, Liquid	0.05087 W/m/K
422.24 K, 1723 kPa, Fluid (supercritical or subcritical phases)	0.0216 W/m/K
422.24 K, 3310 kPa, Liquid	0.05093 W/m/K
422.25 K, 1221 kPa, Fluid (supercritical or subcritical phases)	0.0209 W/m/K
422.25 K, 2616 kPa, Liquid	0.05034 W/m/K
422.25 K, 2913 kPa, Liquid	0.05043 W/m/K
422.25 K, 2914 kPa, Liquid	0.05049 W/m/K
422.33 K, 1032 kPa, Fluid (supercritical or subcritical phases)	0.02082 W/m/K
422.33 K, 1561 kPa, Fluid (supercritical or subcritical phases)	0.02131 W/m/K
422.33 K, 6610 kPa, Liquid	0.05507 W/m/K
